Measurements taken from patent publication US7888382B2, “Combined pharmaceutical preparation for treatment of type 2 diabetes” (Kissei Pharmaceutical Co., Ltd., priority 2005, dated 2011).
Like-named read-outs stand apart in the source and are kept apart here.

Columns and labels:
[1] = tested on: patients with type 2 diabetes; conditions: human, in vivo
Description: Clinical trials as follows were performed with double-blind, parallel group trial on patients with type 2 diabetes.
Type 2 diabetic patients of at least 20 years old whose blood glucose could not be sufficiently controlled by a dietary therapy and who requires introduction of medication and has HbA1C of at least 6.5% and less than 8.5%.
(1) 5 mg tablet of mitiglinide calcium hydrate (hereafter also referred to as “KAD-1229”)
(2) placebo tablet of KAD-1229 5 mg tablet
(4) placebo tablet of KAD-1229 10 mg tablet
(5) 0.2 mg tablet of voglibose
(6) placebo tablet of voglibose 0.2 mg tablet
(Method of Administration)
A 0.2 mg tablet of voglibose was orally administered 3 times a day immediately before every meal (within 5 minutes before eating) for 16 weeks (an observation period: a non-blind trial period). Thereafter, investigational drugs distributed as Table 1 were orally administered 3 times a day immediately before every meal (within 5 minutes before eating) for 12 weeks (a treatment period: a double-blind trial period). Administration of the investigational drugs after meal was not allowed, and administration was not performed when the meal was not taken.
The following items were assessed during and after the period of administration.

Male Wistar rats = test: Oral sucrose tolerance test; type: in vivo, rat; conditions: in combination with voglibose, sucrose 2.5 g/kg, compared to nateglinide or repaglinide, FIG. 11
Description: Male Wistar rats purchased from Japan SLC, Inc. were used in this test.
An oral sucrose tolerance test was performed using 7-week-old rats.
The rats were fasted for at least 16 hours and received oral administration of 2.5 mL/kg of a prepared tested substance or a vehicle (0.5% CMC solution), followed by oral administration of 5 mL/kg of 0.5 g/mL sucrose solution (2.5 g/kg). Blood was drawn from a rat tail vein immediately before administration and 0.25 and 0.5 hours after loading. A plasma glucose concentration was measured using a Glucose CII-test Wako (Wako Pure Chemical Industries, Ltd.).
A dose of the tested substance was converted from a usual dose of each drug for a type 2 diabetic patient (mitiglinide: 10 mg, nateglinide: 120 mg, repaglinide: 1 mg). As for nateglinide, a converted value of 12 mg was changed to 20 mg to be set as a dose, considering an effect thereof.
An area under the plasma glucose concentration-time curve from a time before sucrose loading to 0.5 hours after sucrose loading (AUC0-0.5 hr) was set as an assessment item. Blood glucose AUC0-0.5 hr was calculated from plasma glucose concentrations with a trapezoidal rule using the area under the plasma glucose concentration-time curve.
Excel (Microsoft Corp.) and GraphPad Prism 3.0 (GraphPad Software Inc.) were used to aggregate and calculate data, to make diagrams and the like. […]

With OCC(CO)N[C@H]1C[C@](O)(CO)[C@@H](O)[C@H](O)[C@H]1O [Comparative Example 1, voglibose] the “Incidence rate of gastrointestinal disorders” value ([1]; 12 weeks) was 10.1% and the “Incidence rate of hypoglycemic symptoms” value ([1]; 12 weeks) was 1.1%.
O.O.O=C([O-])[C@H](CC(=O)N1C[C@H]2CCCC[C@H]2C1)Cc1ccccc1.O=C([O-])[C@H](CC(=O)N1C[C@H]2CCCC[C@H]2C1)Cc1ccccc1.[Ca+2] [Comparative Example 2, mitiglinide calcium hydrate] was tested, and the “blood glucose decreasing effect (blood glucose AUC0-0.5 hr)” value (Male Wistar rats) was “strong blood glucose decreasing effect within a very short time”, the “Incidence rate of gastrointestinal disorders” value [1] was 6.8% and the “Incidence rate of hypoglycemic symptoms” value [1] was 3.9%.
